Experiment: Au(I)-mediated imine macrocyclisation: N-terminal amine adds (Markovnikov) to N-propargyl backbone amide alkyne; JohnPhosAu(MeCN)SbF6 2 equiv, Et4NBr 16 equiv; in situ NaBH4 10 equiv reduction 15 min for quantification
Conditions: DMF, 8.0 mM, 37.0 °C

CC(C)C[C@@H]1NC(=O)CNC(C)CN(CC(N)=O)C(=O)CNC(=O)CNC(=O)CNC(=O)[C@H](C)NC(=O)[C@H](CCCNC(=N)N)NC(=O)[C@H](Cc2ccc(O)cc2)NC(=O)[C@H](CC(C)C)NC(=O)[C@H](Cc2ccccc2)NC(=O)CNC(=O)CNC(=O)[C@H](C)NC(=O)[C@H](CCCNC(=N)N)NC(=O)[C@H](Cc2ccc(O)cc2)NC(=O)[C@H](CC(C)C)NC1=O (some centres unmarked)
ring closure, conversion by HPLC (from C#CCN(CC(N)=O)C(=O)CNC(=O)CNC(=O)CNC(=O)[C@H](C)NC(=O)[C@H](CCCNC(=N)N)NC(=O)[C@H](Cc1ccc(O)cc1)NC(=O)[C@H](CC(C)C)NC(=O)[C@H](Cc1ccccc1)NC(=O)CNC(=O)CNC(=O)[C@H](C)NC(=O)[C@H](CCCNC(=N)N)NC(=O)[C@H](Cc1ccc(O)cc1)NC(=O)[C@H](CC(C)C)NC(=O)[C@H](CC(C)C)NC(=O)CN, 51-membered ring, 1.0 h): 94%

CC(C)C[C@@H]1NC(=O)CNC(C)CN(CC(N)=O)C(=O)CNC(=O)CNC(=O)CNC(=O)[C@H](C)NC(=O)[C@H](CCCNC(=N)N)NC(=O)[C@H](Cc2ccc(O)cc2)NC(=O)[C@H](CC(C)C)NC(=O)[C@H](Cc2ccccc2)NC(=O)[C@H](C)NC(=O)[C@H](CCCNC(=N)N)NC(=O)[C@H](Cc2ccc(O)cc2)NC1=O (some centres unmarked)
ring closure, conversion by HPLC (from C#CCN(CC(N)=O)C(=O)CNC(=O)CNC(=O)CNC(=O)[C@H](C)NC(=O)[C@H](CCCNC(=N)N)NC(=O)[C@H](Cc1ccc(O)cc1)NC(=O)[C@H](CC(C)C)NC(=O)[C@H](Cc1ccccc1)NC(=O)[C@H](C)NC(=O)[C@H](CCCNC(=N)N)NC(=O)[C@H](Cc1ccc(O)cc1)NC(=O)[C@H](CC(C)C)NC(=O)CN, 42-membered ring, 1.0 h): 90%

CC(C)C[C@@H]1NC(=O)CNC(=O)[C@H](CCCNC(=N)N)NC(C)CN(CC(N)=O)C(=O)CNC(=O)[C@H](C)NC(=O)[C@H](CCCNC(=N)N)NC(=O)[C@H](Cc2ccc(O)cc2)NC1=O (stereo partly drawn) [H-Arg-Gly-Leu-Tyr-Arg-Ala-Gly-(N-propargyl)Gly-NH2]
ring closure, conversion by HPLC (from C#CCN(CC(N)=O)C(=O)CNC(=O)[C@H](C)NC(=O)[C@H](CCCNC(=N)N)NC(=O)[C@H](Cc1ccc(O)cc1)NC(=O)[C@H](CC(C)C)NC(=O)CNC(=O)[C@@H](N)CCCNC(=N)N, 24-membered ring, 1.0 h): 83%

CC(C)C[C@@H]1NC(=O)CNC(=O)[C@H](CC(N)=O)NC(C)CN(CC(N)=O)C(=O)CNC(=O)[C@H](C)NC(=O)[C@H](CCCNC(=N)N)NC(=O)[C@H](Cc2ccc(O)cc2)NC1=O (stereo partly drawn) [H-Asn-Gly-Leu-Tyr-Arg-Ala-Gly-(N-propargyl)Gly-NH2]
ring closure, conversion by HPLC (from C#CCN(CC(N)=O)C(=O)CNC(=O)[C@H](C)NC(=O)[C@H](CCCNC(=N)N)NC(=O)[C@H](Cc1ccc(O)cc1)NC(=O)[C@H](CC(C)C)NC(=O)CNC(=O)[C@@H](N)CC(N)=O, 24-membered ring, 1.0 h): 76%

CC(C)C[C@@H]1NC(=O)CNC(=O)[C@H](CC(=O)O)NC(C)CN(CC(N)=O)C(=O)CNC(=O)[C@H](C)NC(=O)[C@H](CCCNC(=N)N)NC(=O)[C@H](Cc2ccc(O)cc2)NC1=O (stereo partly drawn) [H-Asp-Gly-Leu-Tyr-Arg-Ala-Gly-(N-propargyl)Gly-NH2]
ring closure, conversion by HPLC (from C#CCN(CC(N)=O)C(=O)CNC(=O)[C@H](C)NC(=O)[C@H](CCCNC(=N)N)NC(=O)[C@H](Cc1ccc(O)cc1)NC(=O)[C@H](CC(C)C)NC(=O)CNC(=O)[C@@H](N)CC(=O)O, 24-membered ring, 1.0 h): 76%

CC(C)C[C@@H]1NC(=O)CNC(=O)[C@H](CS)NC(C)CN(CC(N)=O)C(=O)CNC(=O)[C@H](C)NC(=O)[C@H](CCCNC(=N)N)NC(=O)[C@H](Cc2ccc(O)cc2)NC1=O (stereo partly drawn) [H-Cys-Gly-Leu-Tyr-Arg-Ala-Gly-(N-propargyl)Gly-NH2]
ring closure, conversion by HPLC (from C#CCN(CC(N)=O)C(=O)CNC(=O)[C@H](C)NC(=O)[C@H](CCCNC(=N)N)NC(=O)[C@H](Cc1ccc(O)cc1)NC(=O)[C@H](CC(C)C)NC(=O)CNC(=O)[C@@H](N)CS, 24-membered ring, 1.0 h): 76%

CC(C)C[C@@H]1NC(=O)CNC(=O)[C@H](CCC(=O)O)NC(C)CN(CC(N)=O)C(=O)CNC(=O)[C@H](C)NC(=O)[C@H](CCCNC(=N)N)NC(=O)[C@H](Cc2ccc(O)cc2)NC1=O (stereo partly drawn) [H-Glu-Gly-Leu-Tyr-Arg-Ala-Gly-(N-propargyl)Gly-NH2]
ring closure, conversion by HPLC (from C#CCN(CC(N)=O)C(=O)CNC(=O)[C@H](C)NC(=O)[C@H](CCCNC(=N)N)NC(=O)[C@H](Cc1ccc(O)cc1)NC(=O)[C@H](CC(C)C)NC(=O)CNC(=O)[C@@H](N)CCC(=O)O, 24-membered ring, 1.0 h): 89%

CC(C)C[C@@H]1NC(=O)CNC(=O)CNC(=O)CNC(C)CN(CC(N)=O)C(=O)CNC(=O)[C@H](C)NC(=O)[C@H](CCCNC(=N)N)NC(=O)[C@H](Cc2ccc(O)cc2)NC1=O (stereo partly drawn) [H-Gly-Gly-Gly-Leu-Tyr-Arg-Ala-Gly-(N-propargyl)Gly-NH2]
ring closure, conversion by HPLC (from C#CCN(CC(N)=O)C(=O)CNC(=O)[C@H](C)NC(=O)[C@H](CCCNC(=N)N)NC(=O)[C@H](Cc1ccc(O)cc1)NC(=O)[C@H](CC(C)C)NC(=O)CNC(=O)CNC(=O)CN, 27-membered ring, 0.5 h): 91%

CC(C)C[C@@H]1NC(=O)CNC(C)CN(CC(N)=O)C(=O)CNC(=O)[C@H](C)NC(=O)[C@H](Cc2ccc(O)cc2)NC1=O (stereo partly drawn) [H-Gly-Leu-Tyr-Ala-Gly-(N-propargyl)Gly-NH2]
ring closure, conversion by HPLC (from C#CCN(CC(N)=O)C(=O)CNC(=O)[C@H](C)NC(=O)[C@H](Cc1ccc(O)cc1)NC(=O)[C@H](CC(C)C)NC(=O)CN, 18-membered ring, 0.5 h): 79%

CC(C)C[C@@H]1NC(=O)CNC(C)CN(CC(N)=O)C(=O)CNC(=O)[C@H](C)NC(=O)[C@H](CCCNC(=N)N)NC(=O)[C@H](Cc2ccc(O)cc2)NC1=O (stereo partly drawn) [H-Gly-Leu-Tyr-Arg-Ala-Gly-(N-propargyl)Gly-NH2]
ring closure, conversion by HPLC (from C#CCN(CC(N)=O)C(=O)CNC(=O)[C@H](C)NC(=O)[C@H](CCCNC(=N)N)NC(=O)[C@H](Cc1ccc(O)cc1)NC(=O)[C@H](CC(C)C)NC(=O)CN, 21-membered ring, 0.5 h): 78%

CC(=O)NCSC[C@@H]1NC(=O)[C@H](Cc2ccc(O)cc2)NC(=O)[C@H](CC(C)C)NC(=O)CNC(C)CN(CC(N)=O)C(=O)CNC(=O)[C@H](C)NC1=O (stereo partly drawn) [H-Gly-Leu-Tyr-Cys(Acm)-Ala-Gly-(N-propargyl)Gly-NH2]
ring closure, conversion by HPLC (from C#CCN(CC(N)=O)C(=O)CNC(=O)[C@H](C)NC(=O)[C@H](CSCNC(C)=O)NC(=O)[C@H](Cc1ccc(O)cc1)NC(=O)[C@H](CC(C)C)NC(=O)CN, 21-membered ring, 0.5 h): 82%

CC(C)C[C@@H]1NC(=O)CNC(C)CN(CC(N)=O)C(=O)CNC(=O)[C@H](C)NC(=O)[C@H](CS)NC(=O)[C@H](Cc2ccc(O)cc2)NC1=O (stereo partly drawn) [H-Gly-Leu-Tyr-Cys-Ala-Gly-(N-propargyl)Gly-NH2]
ring closure, conversion by HPLC (from C#CCN(CC(N)=O)C(=O)CNC(=O)[C@H](C)NC(=O)[C@H](CS)NC(=O)[C@H](Cc1ccc(O)cc1)NC(=O)[C@H](CC(C)C)NC(=O)CN, 21-membered ring, 0.5 h): 75%

CC(C)C[C@@H]1NC(=O)CNC(=O)[C@H](Cc2c[nH]cn2)NC(C)CN(CC(N)=O)C(=O)CNC(=O)[C@H](C)NC(=O)[C@H](CCCNC(=N)N)NC(=O)[C@H](Cc2ccc(O)cc2)NC1=O (stereo partly drawn) [H-His-Gly-Leu-Tyr-Arg-Ala-Gly-(N-propargyl)Gly-NH2]
ring closure, conversion by HPLC (from C#CCN(CC(N)=O)C(=O)CNC(=O)[C@H](C)NC(=O)[C@H](CCCNC(=N)N)NC(=O)[C@H](Cc1ccc(O)cc1)NC(=O)[C@H](CC(C)C)NC(=O)CNC(=O)[C@@H](N)Cc1c[nH]cn1, 24-membered ring, 1.0 h): 90%

CC[C@H](C)[C@@H]1NC(C)CN(CC(N)=O)C(=O)CNC(=O)[C@H](C)NC(=O)[C@H](CCCNC(=N)N)NC(=O)[C@H](Cc2ccc(O)cc2)NC(=O)[C@H](CC(C)C)NC(=O)CNC1=O (stereo partly drawn) [H-Ile-Gly-Leu-Tyr-Arg-Ala-Gly-(N-propargyl)Gly-NH2]
ring closure, conversion by HPLC (from C#CCN(CC(N)=O)C(=O)CNC(=O)[C@H](C)NC(=O)[C@H](CCCNC(=N)N)NC(=O)[C@H](Cc1ccc(O)cc1)NC(=O)[C@H](CC(C)C)NC(=O)CNC(=O)[C@@H](N)[C@@H](C)CC, 24-membered ring, 1.0 h): 76%

CC(C)C[C@@H]1NC(=O)CNC(=O)[C@H](Cc2ccccc2)NC(C)CN(CC(N)=O)C(=O)[C@H](C)NC(=O)[C@H](C)NC(=O)[C@H](CCCNC(=N)N)NC(=O)[C@H](Cc2ccc(O)cc2)NC1=O (stereo partly drawn) [H-Phe-Gly-Leu-Tyr-Arg-Ala-Ala-(N-propargyl)Gly-NH2]
ring closure, conversion by HPLC (from C#CCN(CC(N)=O)C(=O)[C@H](C)NC(=O)[C@H](C)NC(=O)[C@H](CCCNC(=N)N)NC(=O)[C@H](Cc1ccc(O)cc1)NC(=O)[C@H](CC(C)C)NC(=O)CNC(=O)[C@@H](N)Cc1ccccc1, 24-membered ring, 1.0 h): 89%

CC(C)C[C@@H]1NC(=O)CNC(=O)[C@H](Cc2ccccc2)NC(C)CN(CC(N)=O)C(=O)[C@H](CC(=O)O)NC(=O)[C@H](C)NC(=O)[C@H](CCCNC(=N)N)NC(=O)[C@H](Cc2ccc(O)cc2)NC1=O (stereo partly drawn) [H-Phe-Gly-Leu-Tyr-Arg-Ala-Asp-(N-propargyl)Gly-NH2]
ring closure, conversion by HPLC (from C#CCN(CC(N)=O)C(=O)[C@H](CC(=O)O)NC(=O)[C@H](C)NC(=O)[C@H](CCCNC(=N)N)NC(=O)[C@H](Cc1ccc(O)cc1)NC(=O)[C@H](CC(C)C)NC(=O)CNC(=O)[C@@H](N)Cc1ccccc1, 24-membered ring, 1.0 h): 80%

CC(C)C[C@@H]1NC(=O)CNC(=O)[C@H](Cc2ccccc2)NC(C)CN([C@@H](C)C(N)=O)C(=O)CNC(=O)[C@H](C)NC(=O)[C@H](CCCNC(=N)N)NC(=O)[C@H](Cc2ccc(O)cc2)NC1=O (stereo partly drawn) [H-Phe-Gly-Leu-Tyr-Arg-Ala-Gly-(N-propargyl)Ala-NH2]
ring closure, conversion by HPLC (from C#CCN(C(=O)CNC(=O)[C@H](C)NC(=O)[C@H](CCCNC(=N)N)NC(=O)[C@H](Cc1ccc(O)cc1)NC(=O)[C@H](CC(C)C)NC(=O)CNC(=O)[C@@H](N)Cc1ccccc1)[C@@H](C)C(N)=O, 24-membered ring, 1.0 h): 90%

Reference: PMC8949771, “Gold(I)-Mediated Rapid Cyclization of Propargylated Peptides via Imine Formation” (Journal of the American Chemical Society, 2022)
